For data set [1], the system named is Sprague Dawley (SD) rats. In words: Liver function tests after single oral PAR overdose with or without GFJ or BGT. The format is in vivo, rat. The settings on record: for Liver function tests ALP / Liver function tests ALT / Liver function tests AST: PAR 1725 mg/kg oral alone, mean ± SD, n = 5.
The test system of data set [2] is Sprague Dawley (SD) rats. In words: Full blood count after drug administration. The settings on record: for thrombocytopenia (low platelet count): all test animals given PAR, GFJ and BGT = groups co-treated with PAR; for Full blood count Hb / Full blood count Hct / Full blood count MCH / Full blood count MCHC / Full blood count MCV / Full blood count Plt / Full blood count RCC / Full blood count WCC: PAR 1725 mg/kg oral alone, mean ± SD, n = 3. The data set is classed as in vivo, rat.

Data set [3] can be described thus: PAR plasma concentration by HPLC. The data set is classed as in vivo. To be noted: Sprague Dawley, rat, oral, 1725 mg/kg.
Data set [4] relates to SD rats. In words: Preliminary determination of the toxic dose of PAR. The format is in vivo, rat. To be noted: preliminary experiment.
The test system of data set [5] is humans. The settings on record: stated without reference; cited from earlier work.
Data set [6] relates to P450 enzymes CYP1A2, CYP2C9, CYP2C19, CYP2D6 and CYP3A4. The settings on record: furanocoumarin dimers versus monomer; cited from earlier work.
Setting [7] is: 48 h after dosing, listed as PAR only.
Setting [8] is: 48 h after dosing, listed as PAR-only.
Where [9] appears, read: PAR 1725 mg/kg single dose, 72 h, 3 rats.
The mark [10] stands for this setting: PAR 1822 mg/kg single dose, 72 h, 3 rats.

Consider `CC(C)=CCC/C(C)=C/COc1c2ccoc2cc2oc(=O)ccc12` [BGT, bergamottin], for which, in data set [1] (co-administered orally with PAR 1725 mg/kg in rats), the “PAR-induced hepatotoxicity after PAR overdose” value is “prevented”. Further, in data set [2], the “thrombocytopenia (low platelet count)” value is listed as “moderate”.
As for `CC(=O)Nc1ccc(O)cc1` [PAR, paracetamol], in data set [1] (24 h after dosing), the “Liver function tests ALP” value was 319 ± 2.1 units/l, the “Liver function tests ALT” value was 63 ± 41.3 units/l and the “Liver function tests AST” value turned out to be 156 ± 76.2 units/l. In addition, the “Liver function tests ALP” value in data set [1] (48 h after dosing) amounted to 296 ± 148.5 units/l. Further, in data set [1] (setting [7]), the “Liver function tests ALT” value is recorded as 837 ± 268 units/l and the “Liver function tests AST” value was found to be 1359 ± 405 units/l. Further, in data set [1] (setting [8]), the “Liver function tests ALT” value is on record as 837 ± 268.0 units/l and the “Liver function tests AST” value amounted to 1359 ± 404.5 units/l. In data set [1] (72 h after dosing), the “Liver function tests ALP” value amounted to 267 ± 38.9 units/l, the “Liver function tests ALT” value came out at 419 ± 690.1 units/l and the “Liver function tests AST” value worked out at 512 ± 657.9 units/l. In data set [3], this compound returned a concentration at 24 h of 5720 ng/mL, a concentration at 48 h of 4450 ng/mL and a concentration at 72 h of 2020 ng/mL. Also, in data set [2] (24 h), the “Full blood count Hb” value came to 15.2 ± 0, the “Full blood count Hct” value was 0.439 ± 0, the “Full blood count MCH” value was found to be 19.9 ± 0 and the “Full blood count MCHC” value is 34.5 ± 0. In addition, in data set [2] (24 h), the “Full blood count MCV” value is listed as 57.6 ± 1, the “Full blood count Plt” value is recorded as 1159 ± 81, the “Full blood count RCC” value amounted to 7.6 ± 0 and the “Full blood count WCC” value is on record as 4.1 ± 1. In addition, in data set [2] (48 h), the “Full blood count Hb” value amounted to 15.3 ± 1, the “Full blood count Hct” value came out at 0.464 ± 0, the “Full blood count MCH” value is on record as 20.4 ± 0 and the “Full blood count MCHC” value is listed as 33.1 ± 0. In data set [2] (48 h), the “Full blood count MCV” value is reported as 61.1 ± 1, the “Full blood count Plt” value is given as 310 ± 305, the “Full blood count RCC” value is recorded as 7.5 ± 0 and the “Full blood count WCC” value is listed as 5.9 ± 0. Further, in data set [2] (72 h), the “Full blood count Hb” value was 13.6 ± 2, the “Full blood count Hct” value was determined as 0.406 ± 0, the “Full blood count MCH” value is on record as 19.8 ± 1 and the “Full blood count MCHC” value is 33.7 ± 1. Besides, in data set [2] (72 h), the “Full blood count MCV” value is given as 58.9 ± 4, the “Full blood count Plt” value came to 326 ± 293, the “Full blood count RCC” value amounted to 6.8 ± 1 and the “Full blood count WCC” value is listed as 4.7 ± 1. In addition, the “thrombocytopenia (low platelet count)” value in data set [2] was “thrombocytopenia”. The “change in liver enzymes” value in data set [4] (PAR 1000 mg dose, 24, 48 and 72 h) is “no change”. In data set [4] (setting [9]), this compound displayed an ALP of 260.0 ± 36 and an AST of 512.0 ± 593. Further, in data set [4] (setting [10]), the ALP was determined as 223.7 ± 82, the ALT was determined as 44.3 ± 3 and the AST was 104.0 ± 14. Also, the “hepatotoxic dose of PAR in humans” value in data set [5] is listed as 100 mg/kg.
Consider paradisine A, for which, in data set [6], the “enzyme inhibitor potency relative to 6-7-dihydroxybergamottin (DHB)” value was “over 20 times” and the “enzyme inhibitor potency relative to BGT (GF-I-2)” value is listed as “over 100 times”.
As for paradisine B, in data set [6], the “enzyme inhibitor potency relative to 6-7-dihydroxybergamottin (DHB)” value is “over 20 times” and the “enzyme inhibitor potency relative to BGT (GF-I-2)” value is reported as “over 100 times”.
